# pIC50: −log10 of the molar value.
# Tested on: 186277-243-T-J2-PDC complex spheroids, viability
# Assay: Anticancer human tumor 186277-243-T-J2-PDC patient-derived colon adenocarcinoma cell line growth inhibition [RAS]
# Settings: for pIC50: curve of first compound; for viability, T/C: stronger effect = lower value
# From the text: RAS pathway inhibitors in Combinations in Complex Spheroids
# A high-throughput screen of multi-cell type tumor spheroids was designed to identify active combinations of RAS pathway inhibitors and targeted small molecules. Complex spheroids include a stromal component modeled by human endothelial cells (HUVEC) and fibroblasts modeled by human mesenchymal stem cells (MSCs). The concentration ranges selected for each drug and investigational agent were based upon clinically achievable concentrations if the clinical Cmax of the agent was known.
# Compounds. The drugs and investigational agents: abemaciclib (NSC768073), cobimetinib (NSC768068), divarasib (GDC6063, NSC841802), docetaxel (NSC628503), GDC-1971 (RLY-1971, NSC841576), gemcitabine (NSC613327), inavolisib (NSC800729), ipatasertib (NSC767898), KB-0742 (NSC834161), MRTX-1133 (NSC836407), osimertinib (NSC779217), RMC-4630 (NSC839698), RMC-6236 (NSC851965), RMC-6291 (NSC852671), Ro-3306 (NSC812927), sapanisertib (NSC764658), SN-38 (NSC673596), staurosporine (NSC755774), SY5609 (NSC837396), and tovorafenib (DAY101, NSC766906), were obtained from the National Cancer Institute (NCI) Developmental Therapeutics Program Chemical Repository. The FDA-approved anticancer drug set is available from the NCI Developmental Therapeutics Program. […] The stock solutions were prepared in dimethyl sulfoxide (DMSO, Sigma-Aldrich, St. Louis, MO, cat. D2650) at 800-fold the tested concentration and stored at -70 degrees C prior to their use. All drugs and investigational agents were tested over a range starting from a high concentration at or near the clinical Cmax and decreasing in half-log increments. If the clinical Cmax for an agent had not been determined, the highest concentration tested was 10 microM.
# Cell Culture. All cells were maintained in an incubator at 37 degrees C and 5% CO2 with 95% humidity. The PDC lines were cultured according to standard operating procedures established by the NCI PDMR. All PDCs were thawed and cultured in Matrigel-coated flasks prepared with a working solution of 1X Ham's F-12 nutrient mix, without supplementation (Invitrogen, Waltham, MA, cat. 11765054), 100 U/mL penicillin-streptomycin (Invitrogen, cat. 15140122), and 2.5% Matrigel (Corning Inc., Corning, NY, cat. 354248) for the first three passages. The 362531-283-R-J2-PDC and 782815-120-R-J1-PDC lines were cultured in 6C/Colon 1B media, which includes advanced DMEM/F-12 (Thermo Fisher Scientific, cat. 12634028), 10 mM HEPES (Thermo Fisher Scientific, cat. 15630080), 1X GlutaMAX supplement (Thermo Fisher Scientific, cat. 35050061), 0.1 mg/mL primocin (InvivoGen, San Diego, CA, cat. ant-pm-2), 10% defined fetal bovine serum, heat inactivated (HyClone Laboratories Inc., Logan, UT, cat. SH30070.03HI), 50% L-WRN conditioned media (ATCC, cat. CRL-3276), 1.25 mM N-Acetyl-L-cysteine (Sigma-Aldrich, cat. A9165), 10 mM nicotinamide (Sigma-Aldrich, cat. N0636), 1X B-27 supplement (Thermo Fisher Scientific, cat. 17504044), 1X N-2 supplement (Thermo Fisher Scientific, cat. 17502048), 50 ng/mL human EGF (Thermo Fisher Scientific, cat. PHG0311), and 10 microM Y-27632 dihydrochloride (Tocris Bioscience, cat. 1254). The K12877-001-R-J1-PDC line was cultured in 6I media, which includes all 6C/Colon 1B media plus 10 ng/mL human FGF-10 (PeproTech, cat. 100-26), 1 ng/mL human FGF-2 (PeproTech, cat. 100-18B), 1 µM prostaglandin E2 (Tocris Bioscience, cat. 2296), […] hydrocortisone (Sigma-Aldrich, cat. H4001), and […] bovine insulin (Sigma-Aldrich, cat. I6634). The K86415-001-R-J1-PDC line was cultured in 6D media, which includes all 6C/Colon 1B media components minus the L-WRN conditioned media. The 485176-168-R4-J1-PDC was cultured in PANC media, which includes all 6C/Colon 1B media plus 100 ng/mL human FGF-10 (PeproTech, cat. 100-26), 500 nM SB-431542 (Selleckchem, cat. S1067), and 10 nM gastrin (Tocris Bioscience, cat. 3006). […]
# 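Also: spheroids exposed to compounds for 7 days before viability read.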
structure (smiles),measurement,setting,value
Cc1nc(N2CCC3(CC2)COC(C)C3N)c(CO)nc1Sc1ccnc(N)c1Cl (centres undefined) + C#Cc1c(F)ccc2cc(O)cc(-c3ncc4c(N5CC6CCC(C5)N6)nc(OCC56CCCN5CC(F)C6)nc4c3F)c12,pIC50,second compound 0.0316 µM,6.94
same,pIC50,second compound 0.1 µM,> 7.50
same,pIC50,second compound 0.316 µM,> 7.50
same,pIC50,second compound 1 µM,> 7.50
same,pIC50,second compound 3.16 µM,> 7.50
same,pIC50,second compound 10 µM,> 7.50
same,"viability, T/C","second compound 0.0316 µM, first compound 0.0316 µM",60.5%
same,"viability, T/C","second compound 0.0316 µM, first compound 0.1 µM",53.8%
same,"viability, T/C","second compound 0.0316 µM, first compound 0.316 µM",23.1%
same,"viability, T/C","second compound 0.0316 µM, first compound 1 µM",9.38%
same,"viability, T/C","second compound 0.0316 µM, first compound 3.16 µM",7.2%
same,"viability, T/C","second compound 0.0316 µM, first compound 10 µM",5.04%
same,"viability, T/C","second compound 0.1 µM, first compound 0.0316 µM",43.9%
same,"viability, T/C","second compound 0.1 µM, first compound 0.1 µM",24.9%
same,"viability, T/C","second compound 0.1 µM, first compound 0.316 µM",9.87%
same,"viability, T/C","second compound 0.1 µM, first compound 1 µM",9.03%
same,"viability, T/C","second compound 0.1 µM, first compound 3.16 µM",6.97%
same,"viability, T/C","second compound 0.1 µM, first compound 10 µM",6.34%
same,"viability, T/C","second compound 0.316 µM, first compound 0.0316 µM",14.7%
same,"viability, T/C","second compound 0.316 µM, first compound 0.1 µM",13.1%
same,"viability, T/C","second compound 0.316 µM, first compound 0.316 µM",9.91%
same,"viability, T/C","second compound 0.316 µM, first compound 1 µM",8%
same,"viability, T/C","second compound 0.316 µM, first compound 3.16 µM",6.18%
same,"viability, T/C","second compound 0.316 µM, first compound 10 µM",5.92%
same,"viability, T/C","second compound 1 µM, first compound 0.0316 µM",12.2%
same,"viability, T/C","second compound 1 µM, first compound 0.1 µM",10.3%
same,"viability, T/C","second compound 1 µM, first compound 0.316 µM",8.18%
same,"viability, T/C","second compound 1 µM, first compound 1 µM",5.06%
same,"viability, T/C","second compound 1 µM, first compound 3.16 µM",6.45%
same,"viability, T/C","second compound 1 µM, first compound 10 µM",4.66%
same,"viability, T/C","second compound 3.16 µM, first compound 0.0316 µM",8.78%
same,"viability, T/C","second compound 3.16 µM, first compound 0.1 µM",9.76%
same,"viability, T/C","second compound 3.16 µM, first compound 0.316 µM",7.42%
same,"viability, T/C","second compound 3.16 µM, first compound 1 µM",6.36%
same,"viability, T/C","second compound 3.16 µM, first compound 3.16 µM",5.23%
same,"viability, T/C","second compound 3.16 µM, first compound 10 µM",4.36%
same,"viability, T/C","second compound 10 µM, first compound 0.0316 µM",7.27%
same,"viability, T/C","second compound 10 µM, first compound 0.1 µM",4.82%
same,"viability, T/C","second compound 10 µM, first compound 0.316 µM",6.12%
same,"viability, T/C","second compound 10 µM, first compound 1 µM",4.54%
same,"viability, T/C","second compound 10 µM, first compound 3.16 µM",4.2%
same,"viability, T/C","second compound 10 µM, first compound 10 µM",1.83%
CC(C)NCC(C(=O)N1CCN(c2ncnc3c2C(C)CC3O)CC1)c1ccc(Cl)cc1 (centres undefined) + CCn1c(-c2cccnc2C(C)OC)c2c3cc(ccc31)N1CCOC(CC(NC(=O)C(C(C)C)N(C)C(=O)C3(F)CCN(C(=O)C#CC(C)(C)N(C)C)CC3)C(=O)N3CCCC(N3)C(=O)OCC(C)(C)C2)C1,pIC50,second compound 0.000949 µM,5.72
same,pIC50,second compound 0.003 µM,5.73
same,pIC50,second compound 0.00949 µM,5.64
same,pIC50,second compound 0.03 µM,5.86
same,pIC50,second compound 0.0949 µM,6.14
same,pIC50,second compound 0.3 µM,6.46
same,"viability, T/C","second compound 0.000949 µM, first compound 0.0316 µM",88.1%
same,"viability, T/C","second compound 0.000949 µM, first compound 0.1 µM",96.7%
same,"viability, T/C","second compound 0.000949 µM, first compound 0.316 µM",108%
same,"viability, T/C","second compound 0.000949 µM, first compound 1 µM",69%
same,"viability, T/C","second compound 0.000949 µM, first compound 3.16 µM",40.5%
same,"viability, T/C","second compound 0.000949 µM, first compound 10 µM",29.4%
same,"viability, T/C","second compound 0.003 µM, first compound 0.0316 µM",83.4%
same,"viability, T/C","second compound 0.003 µM, first compound 0.1 µM",83.4%
same,"viability, T/C","second compound 0.003 µM, first compound 0.316 µM",88.2%
same,"viability, T/C","second compound 0.003 µM, first compound 1 µM",62.8%
same,"viability, T/C","second compound 0.003 µM, first compound 3.16 µM",39.9%
same,"viability, T/C","second compound 0.003 µM, first compound 10 µM",29.4%
same,"viability, T/C","second compound 0.00949 µM, first compound 0.0316 µM",90.2%
same,"viability, T/C","second compound 0.00949 µM, first compound 0.1 µM",82.8%
same,"viability, T/C","second compound 0.00949 µM, first compound 0.316 µM",89.2%
same,"viability, T/C","second compound 0.00949 µM, first compound 1 µM",67%
same,"viability, T/C","second compound 0.00949 µM, first compound 3.16 µM",43.9%
same,"viability, T/C","second compound 0.00949 µM, first compound 10 µM",28%
same,"viability, T/C","second compound 0.03 µM, first compound 0.0316 µM",104%
same,"viability, T/C","second compound 0.03 µM, first compound 0.1 µM",95.8%
same,"viability, T/C","second compound 0.03 µM, first compound 0.316 µM",108%
same,"viability, T/C","second compound 0.03 µM, first compound 1 µM",57.3%
same,"viability, T/C","second compound 0.03 µM, first compound 3.16 µM",36.6%
same,"viability, T/C","second compound 0.03 µM, first compound 10 µM",25.3%
same,"viability, T/C","second compound 0.0949 µM, first compound 0.0316 µM",99%
same,"viability, T/C","second compound 0.0949 µM, first compound 0.1 µM",106%
same,"viability, T/C","second compound 0.0949 µM, first compound 0.316 µM",72%
same,"viability, T/C","second compound 0.0949 µM, first compound 1 µM",40.6%
same,"viability, T/C","second compound 0.0949 µM, first compound 3.16 µM",34.7%
same,"viability, T/C","second compound 0.0949 µM, first compound 10 µM",18.7%
same,"viability, T/C","second compound 0.3 µM, first compound 0.0316 µM",99.2%
same,"viability, T/C","second compound 0.3 µM, first compound 0.1 µM",83.3%
same,"viability, T/C","second compound 0.3 µM, first compound 0.316 µM",51.8%
same,"viability, T/C","second compound 0.3 µM, first compound 1 µM",27.9%
same,"viability, T/C","second compound 0.3 µM, first compound 3.16 µM",20.4%
same,"viability, T/C","second compound 0.3 µM, first compound 10 µM",15.8%

# From PubChem BioAssay AID2060908 (Molecular Pharmacology Branch, DTP, NCI, 2025)
